Reference: the OligoGym collection
These antisense oligonucleotides have a phosphorothioate backbone; sugars and methylation of C are not fully specified.

What follows are sequences tested against TERF1. Details: ASO.
Also: test concentration or dose not given here.

Sequence | remaining target (mRNA or protein) (fraction of control)
CTTTCTGAGAGATTATCAT | 0.93
GCTTTTACAAACACAATCAG | 0.73
GCCATGTTAAATGGCTCGAT | 0.61
GAGGTTCAGTGAGCTGAAAT | 0.81
ATATTAAATGAAGGTATCAG | ≥ 1
CACAGTCCCCAGTAGGTAAG | 0.56
CATCCTCCGCCATGTTAAAT | 0.73
ACAATCAGTCTTCGCTGTCT | 0.57

What follows are sequences tested against MAP3K5. Details: ASO.

Sequence | remaining target (mRNA or protein) (fraction of control)
CGCCTCCGTGCTCATCTCTC | 0.1
CAGCTCAAGGGCGCCGCGCT | 0.59
CGCTGCCCGGCGGCGGCTCG | 0.78
TCTGCTTTCAGTGTCCGTGA | 0.21
TGCTCATCTCTCCGGGCCGG | 0.4
AGGGTTTCCAGGGTGGCGCC | 0.52
CCTCCGTGCTCATCTCTCCG | 0.09
GAAGCCGGGTGAGCGGGAAG | 0.34
CCGAATTCCCTTGACATCTC | 0.62
CAGTAACATCTGTCTTTGTG | 0.62
CGTCCGCCTCCGTGCTCATC | 0.12
AGTAAACAAATACTGGATTT | 0.77
GGCCTCGCTCTCGGCCACCA | 0.03
CTCCCAGTTCATAAAATGGG | 0.85
ATGTTGTTGGCCATGCTGAA | 0.31
TCTAATGTTCAGGATTATTT | ≥ 1
CACTGCTCGAGGAGGTGGCC | 0.47
CTCTGTCACCATTTTCATCA | 0.41
CAAATTCTCTGAGGCTTGCA | 0.54
ACCGGCTTATAGTGTCTTCA | 0.73

Sequence | remaining target (mRNA or protein) (fraction of control)
TTCGTCCGCCTCCGTGCTCA | 0.18
AAGAAGATCAGCTCTGTATT | 0.49
CGTGCTCATCTCTCCGGGCC | 0.12
CTCATCTCTCCGGGCCGGGC | 0.3
CTTGAGGTACCATGCTGGTG | 0.36
CAAATTTAGAAATACTCACT | 0.85
CCAGAAGCTGCCCGGCGGCG | 0.56
TCCGCCTCCGTGCTCATCTC | 0.12
CATCAACAAGCAAGTCGTTA | 0.37
TCTCTCCGGGCCGGGCAGCA | ≥ 1
CATCTCTCCGGGCCGGGCAG | 0.61
TGTCAACCCCTTCATGAAGC | 0.19
GAACTATCTGATTGTCATGG | 0.83
ATGTCATTGAGTATAGATTC | 0.69
TTCTAAAGTCTCTACCAGCT | 0.24
GGATGGTGCAGAAGCCCGAG | 0.5
GCCGGCTGACAAGTCGGCTC | 0.43
TCCGTGCTCATCTCTCCGGG | 0.17
GCACGATCACATGAATGTTA | 0.58
TGAGCAACAGTCAAGTCTGT | 0.56

The sequences below were run against MAP2K2. Details: ASO.

Sequence | remaining target (mRNA or protein) (fraction of control)
CTCCTTCTTCCCCGTCGA | 0.4
TGGTTTGTGAGCATCTTC | 0.29
TCCATCCCGTGACCGCTG | 0.18
TGTGTTCCATGCAAATGC | 0.75
TCTTTCAGCACCTGGTCC | 0.48
CCGTTGCCCGCGCCCAGC | 0.24
GTCACTGTAGAAGGCCCC | 0.38

These sequences were tested against XIAP. Details: ASO.

Sequence | remaining target (mRNA or protein) (fraction of control)
CTATCATTAAATACGCTTTC | 0.99
TGACTAGATGTCCACAAGGA | 0.61
AGCATGTTGTTCCCAAGGGT | 0.54
TTCAAAACTGTTAAAAGTCA | ≥ 1
GGTTAGGTTACTGATGTTAG | ≥ 1
AAGTCATCTTCTCTTGAAAA | 0.6
TGCTCTTCAGTACTAATCTC | 0.58
TAGGACTTGTCCACCTTTTC | 0.58
ATTCGTATAGCTTCTTGTAC | 0.61
TTAAAAGTCATCTTCTCTTG | ≥ 1
TTGAAAATAGGACTTGTCCA | 0.93
ATTTATAGTTGCTCCCAGAT | 0.58
AAACTGTTAAAAGTCATCTT | 0.81
AAAAGTCATCTTCTCTTGAA | 0.58
GTCATCTTCTCTTGAAAATA | 0.72
TATGATGCTTCTTATTCTTA | 0.65
GAAATTCCTATCAGAACTCA | 0.76
TCTTCTCTTGAAAATAGGAC | 0.96
CATCTTCTCTTGAAAATAGG | 0.9
TCTGCATGTGTCTCAGATGG | 0.42

Sequence | remaining target (mRNA or protein) (fraction of control)
ATTTGTTAAGCCTATCTGAA | 0.66
GCATGACAACTAAAGCACCG | 0.56
GATGTCTGCAGGTACACAAG | 0.56
TAGCAAAAGTTTTTAATCTA | 0.99
TTGTACTGACCATTCTGGAT | 0.47
TCCTTGTTAACTGAGTATAT | 0.69
AGAAAATGGACAGAATCCTA | 0.74
AATCTGCAATTTGGGGATAC | 0.93
TAATGGAATTCAATCCTGAT | 0.83
TGCCTACTATAGAGTTAGAT | 0.6
TGTTAAAAGTCATCTTCTCT | 0.84
CACTCCTCAAGTGAATGAGT | 0.52
CAACTAAAACACTGCCATGT | 0.54
TAGAGTCCAGCACTTGCTAA | 0.4
ACTGTTAAAAGTCATCTTCT | 0.87
ACAATACATGGCAGGGTTCC | 0.41
TCCACCAGCATGGAACAATT | 0.71
CCAGGCACGATCACAAGGTT | ≥ 1
CAAAACTGTTAAAAGTCATC | ≥ 1
TATTAACAACATACATACTT | ≥ 1

What follows are sequences tested against PTPN6. Details: ASO.

Sequence | remaining target (mRNA or protein) (fraction of control)
CAAACTCTCAAACTCCTCCC | 0.88
AACCACCCACGGGACAGCAT | 0.47
TTCAGTGATCCCAGGGCTTT | 0.75
CGCATTTGTTCCGGCCTTTC | 0.69
GCGCCTGAGGCCTCCTCAAT | 0.84
CGCTCACTTCCTCTTGAGGG | 0.69
CTCTTGAGGGAACCCTTGCT | 0.49
TCAGAGTCGCAAACTTCTCC | ≥ 1
GCCACGCCATCTGCCAGAAG | 0.7
AGCAGGGTCTCTGCATCCAG | ≥ 1
TGCCGGCGCTGCAGTGCACG | 0.85
GATGTCAATGTCACAGTCCA | 0.73
GCCAGGTGAGGAAGAACCGC | ≥ 1
GACAGCATCTCTCTGTAGGG | 0.78
TCTCATCAGGGCCTAGCAGC | 0.74
GGGACAGCATCTCTCTGTAG | ≥ 1
GACCCCATGGTCGGGCCAGC | ≥ 1
CCCTGACGGAGAGCGAGAAG | ≥ 1
CCACGGGACAGCATCTCTCT | ≥ 1
ACGGGACAGCATCTCTCTGT | 0.65

Sequence | remaining target (mRNA or protein) (fraction of control)
GAAACCACCCACGGGACAGC | ≥ 1
GTGCAGGTTCTCATACACAT | 0.64
TCATGCTCCCCGCAGTTGGT | 0.4
GGCCTGGCTGGGCTATATAC | ≥ 1
ACCCACGGGACAGCATCTCT | ≥ 1
GGGAGAATGTTCTTGTAGCG | ≥ 1
GCATCTCTCTGTAGGGAGGG | 0.96
CGACTCCTGGCCCTTCTGCG | 0.61
TGGTGCCGTCGCGGTCCTGC | 0.29
CAGCATCTCTCTGTAGGGAG | 0.81
CCACCCACGGGACAGCATCT | ≥ 1
ATGTGGCCATGGTACCACCT | ≥ 1
GATGAACTTGTACTGCGCCT | 0.84
CCACCTGAGGACAGCACCGC | 0.84
TCAGCCGCATTCACCCTCGT | 0.54
AGGCTCTCACGCACAAGAAA | 0.66
GCCTGGGCCAGCCTTGGGCT | ≥ 1
GAGGACAGCACCGCTCACTT | 0.88
CGTGAGGCTGTCGAAGGTCT | 0.9
TGAGTCTGTCCATCGCGAAA | 0.63
